Experiments:
Type in all cases: cell-based, rat
[1] = system: Akt (Ser473); assay: Western blot of Akt phosphorylation in H4IIE cells; details: 6 minutes
Description: (§1) Tissue culture media, antibiotics, fetal bovine serum (FBS) and Nunc tissue culture plates were purchased from Invitrogen Canada Inc. (Burlington, Ontario, Canada, L7P 1A1). Insulin (Sigma-Aldrich Canada Ltd., Oakville, Ontario, Canada, L6H 6J8) was dissolved in water and added directly to cells at a concentration of 250 nM unless otherwise indicated. The BWE was prepared and analyzed as described in Example 1. Two μL of the BWE were added directly to cells unless otherwise indicated. This amount was chosen on the basis of equivalence to insulin. Myo-inositol (Sigma-Aldrich Canada Ltd.) and D-chiro-inositol (Industrial Research Ltd., Wellington, New Zealand) were dissolved in water at an equal concentration to the amounts present in the BWE (Table 3) and 2 μL of each solution (0.1% v/v final concentration) was added directly to cells.
(§2) Rat H4IIE hepatoma cells (American Type Culture Collection, CRL 1548) were cultured following the method disclosed by Yau et al., (1998, Eur. J. Biochem. 253: 91-1). The H4IIE cells were maintained in α-modified Eagle's media containing 10% FBS, 2 mM glutamine, 25 μg·mL^−1 streptomycin and 25 units·mL^−1 penicillin. Cells were plated and grown to 70% confluence. All cells were placed into serum-free medium for 72 h before addition of stimulating agents to ensure entry into a quiescent state. […]
(§3) Cellular protein extracts were prepared by addition of 200 μL 2×SDS/gel loading buffer (0.125 M Tris pH 6.8, 2% SDS, 10% glycerol) to H4IIE cells in 12-well culture dishes. The samples were briefly sonicated, and protein content measured using the BCA protein assay kit. […] HRP was detected using the ECL chemiluminescent system after the membranes had been washed four times.
(§4) Quantification of data obtained on film (Kodak X-omat) was accomplished with a GS800 imaging densitometer (Bio-Rad Laboratories) under nonsaturating conditions with local background subtraction. […]

[2] = system: Insulin receptor substrate-I (Tyr941); assay: Western blot of IRS-1 phosphorylation in H4IIE cells; details: 6 minutes
Description: as §1, §2, §3, §4

[3] = system: H4IIE cells; assay: 3H-deoxyglucose uptake by H4IIE cells; details: for 3H-deoxy-glucose uptake (basal) by H4IIE cells: insulin 10^-6 M, 2 μL (0.4% v/v) of BWE, D-CI or MI, versus untreated cells
Description: Tissue culture media, antibiotics, fetal bovine serum (FBS) and Nunc tissue culture plates were purchased from Gibco-BRL (division of Invitrogen Canada Inc.). Insulin (Sigma-Aldrich Canada Ltd.) was dissolved in water and added directly to cells at a final concentration of 10^−6 M. The buckwheat extract was prepared and analyzed as in Example 1. Two μL of the buckwheat extract were added directly to cells unless otherwise indicated. Myo-inositol (Sigma Aldrich Canada Ltd.) and D-chiro-inositol (Industrial Research Ltd.) were dissolved in water at an equal concentration to the amounts present in the BWE (Table 3) and 2 μL of each solution was added directly to cells.
Rat H4IIE hepatoma cells (American Type Culture Collection, CRL 1548) were cultured as described in Example 3. Briefly, cells were maintained in α-modified Eagle's media containing 10% FBS, 2 mM glutamine, 50 μg·mL^−1 streptomycin and 50 μg·mL^−1 penicillin. Cells were plated and grown to 70% confluence. All cells were placed into serum-free medium for 72 h before addition of stimulating agents to ensure entry into a quiescent state.
^3H-deoxyglucose uptake was assayed using the method disclosed by Harrison et al. (1990, J. Biol. Chem. 265(10):5793-5801). Quiescent H4IIE cells, in 24-well culture dishes containing 1 mL serum-free medium, were washed three times with physiological salt solution (PSS) ([…], pH 7.4). Cells were placed into 0.5 mL PSS and pre-incubated with inhibitors for 10 minutes prior to the 20 minute stimulation with treatments (insulin, BWE, D-CI, MI). For all experiments, insulin was added at a concentration of 10^−6 M whereas 2 μL volumes of the BWE, D-CI, or MI (0.4% v/v final concentration) were added to cells unless otherwise indicated in figures. Sugar uptake was initiated by the addition of ^3H-deoxyglucose to a final assay concentration of 0.1 mM glucose (1 mCi/mL) and the cells were subsequently incubated for 5 minutes at 37° C. After two rapid washes with ice-cold PSS (0.5-1 mL/well), the cells were solubilized with 0.4 mL of 0.1% SDS, and ^3H was detected in 3 mL of EcoLume scintillant (MP Biomedicals Inc., Costa Mesa, Calif., USA, 92626).
Statistical significance between treatments was determined by one-way ANOVA and by Duncan's multiple range test for means testing (SAS v.9.1, SAS Institute Inc., Cary, N.C.). […] Data are expressed as the mean±SE.
Since insulin has the same effect, we compared the ability of BWE, insulin and two insulin-mimetic compounds (D-CI and MI) to stimulate glucose uptake by H4IIE hepatoma cells. […] Radio-labelled deoxyglucose was added to the medium and glucose uptake was determined by the detection of ^3H in cells.
Fractions (˜1.0 ml) from each solvent extraction were collected and assayed for their effects on MAPK activation as described in Example 3. The effects of selected fractions, alone or in combination with insulin, on the uptake of labelled glucose were assessed following the methods described in Example 4. […] The effects of the solvent fractions on H4IIE cells were assessed with 20-min exposure periods after which, sugar uptake was initiated by the addition of ^3H-deoxyglucose to a final assay concentration of 0.1 mM glucose (1 mCi/mL) and the cells were subsequently incubated for 5 minutes at 37° C. After two rapid washes with ice-cold PSS (0.5-1 mL/well), the cells were solubilized with 0.4 mL of 0.1% SDS, and ^3H was detected in 3 mL of EcoLume scintillant. […]

Compound	phosphorylation of Akt [1]	phosphorylation of IRS-1 [2]	3H-deoxy-glucose uptake (basal) by H4IIE cells [3]	effect of the inhibitor on insulin-stimulated glucose uptake (FIG. 23) ([3]; H4IIE cells, pre-incubated with inhibitor, then insulin)
OC1C(O)C(O)C(O)C(O)C1O [D-CI, D-chiro-inositol]	do not provide comparable stimulation	do not provide comparable stimulation	stimulated glucose uptake	–
O[C@H]1[C@H](O)[C@@H](O)[C@H](O)[C@@H](O)[C@H]1O [MI, myo-inositol]	do not provide comparable stimulation	do not provide comparable stimulation	not statistically different from untreated cells	–
COc1cccc(-c2cc(=O)c3ccccc3o2)c1N [PD98059]	–	–	–	decreased insulin-stimulated glucose uptake
insulin: Insulin (Sigma-Aldrich) dissolved in water, positive comparator	phosphorylated in response to insulin	phosphorylated in response to insulin	stimulated glucose uptake	–

From patent US7993687B2, “Compositions and methods for management of diabetes” (priority 2006, dated 2011)
